Data from US4760180A, “N-terminally substituted dipeptide amides” (priority 1986, dated 1988).
Like-named read-outs stand apart in the source and are kept apart here.

What was measured:
[1] = system: phenylbenzoquinone-induced writhing in mice; experiment: Writhing assay (phenylbenzoquinone); format: in vivo; details: 30 min before phenylbenzoquinone i.p.; for Writhing Mouse Oral: screening dose 10 mg/kg p.o. (intragastric); for Writhing Mouse Subc.: screening dose 10 mg/kg s.c.
Description: Writhing assay. Male Charles River albino mice (CD-1/HAM/1LR) weighing between 20 and 30 grams were used. Thirty minutes after subcutaneous or intragastric administration of the test compound (0.1 ml/10 gram body weight), 0.025(w/v) phenylbenzoquinone was injected intraperitoneally (0.1 ml/10 gram body weight). Five minutes later, each mouse was placed in a large glass beaker and the number of writhes that occurred in the subsequent ten minutes is counted. A writhe consisted of dorsoflexion of the back, extension of the hindlimbs, and strong contraction of the abdominal musculature. The test compound was considered to have produced analgesia in a mouse if the number of writhes elicited by phenylbenzoquinone was equal to or less than one-half the median number of writhes recorded for the saline-treated group that day. The results were expressed as the number of mice (out of a possible ten) in which the test compound produced analgesia. […] If the initial test dose of 10 mg/kg inhibited writhing in greater than 6 of IO mice, the effect of additional doses was evaluated and an ED50 value was calculated using a maximum likelihood function.

[2] = target: opiate receptors isolated from rat brain; format: binding
Description: Opiate Binding Assay. The test compounds were evaluated for their ability to displace the binding of ^3 H-Naloxone to opiate receptors isolated from rat brain. Male rats [Crl CD(SD)BR] obtained from Charles River Laboratories (Portage, Mich.) were sacrificed by cervical dislocation. A purified homogenate of receptor membranes was prepared from the brains according to the method described by Chang and Cuatrecasas. (K.-J. Chang and P. Cuatrecasas. Multiple Opiate Receptors: Enkephalins And Morphine Bind To Receptors Of Different Specificity. J. Biol. Chem. 254, 2610-2618 (1979).) The brains were homogenized in 10 volumes of 0.32M sucrose and centrifuged twice at 6,000xg for 15 minutes. Following centrifugation of the supernatants at 40,000xg for 30 minutes, the pellets were resuspended in 5mM Tris-HCl and then centrifuged at 6,000xg. The supernatant was centrifuged at 40,000xg. This resuspended pellet (5mM Tris HCl) was centrifuged twice. The final pellet was resuspended in 2 volumes of 50 mM tris HCl (pH 7.4). The homogenate was assayed for protein content according to the method of Itzhaki and Gill. (R. F. Itzhaki and D. M. Gill. A Micro-Biuret Method for Estimating Proteins. Anal. Biochem. 9, 401-410 (1964).
The binding of the test compounds to the receptor membrane preparation was measured using a modification of the method of Pert and Snyder. (C. B. Pert and S. H. Snyder. Properties of Opiate-Receptor Binding in Rat Brain. Proc. Natl. Acad. Sci. 70, 2243-2247 (1973). The receptor assay was run using final concentrations of 1 nM ^3 -H-Naloxone and 0.5 mg/ml of homogenate protein.
Levorphanol (1×10^-5 M) was used as the displacer for non-specific binding. Final concentration of the test compounds was 10^-5 M. The assay was run in 0.05M tris HCl (pH 7.4). Total assay volume was 1.0 ml.
Samples were incubated at 25° C. for 60 min., filtered over Whatman GF/C glass fiber filters and rinsed twice with 4 ml washes of ice-cold buffer. The filters were air-dried at 50° C. for 30 minutes. After drying, 10 ml of PCS was added to the vial and the radioactivity determined using a tracor analytic Mark III liquid scintillation counter with a counting efficiency of 48.
The IC50 value, the concentration of the test compounds which inhibited ^3 H-Naloxone specific binding to the opiate receptor by 50, were obtained from log-logit plots of concentration-response curves.

[3] = system: rat; details: injected directly into the brain of the rat; Belluzi et al., Nature 260, 625 (1976); cited from earlier work
[4] = inhibition of 1 nM 3H-Naloxone specific binding, rat brain membranes, screening concentration 10^-5 M

With “0-ethyl-2,6-dimethyl-DL-tyrosyl-N-(3-phenylpropyl)-D-alaninamide, acetate (salt), hydrochloride (4:3:5; [Example 5]” the “Writhing Mouse Oral” value [1] was “Inactive”, the “Writhing Mouse Subc.” value [1] was “Active” and the IC50 ([2]; read-out: Opiate Binding IC50) was 130 nM.
For “2,6,dichlorotyrosyl-N-(3-phenylpropyl)-D-alaninamide, monohydrochloride [Example 23]”, the “Writhing Mouse Oral” value [1] was “Active”, the “Writhing Mouse Subc.” value [1] was “Active” and the IC50 [2, 4] was 7.6 nM.
With `Cc1cc(O)cc(C)c1CC(N)C(=O)N(C)[C@H](C)C(=O)NCCCc1ccccc1.Cl` (mixture of isomers) [Example 15, 2,6-dimethyl-DL-tyrosyl-Nα-methyl-N-(3-phenylpropyl)-D-alaninamide, monohydrochloride] the “Writhing Mouse Oral” value [1] was “Active”, the “Writhing Mouse Subc.” value [1] was “Active” and the IC50 [2, 4] was 0.6 nM.
For `Cc1cc(O)cc(C)c1CC(N)C(=O)N[C@H](C)C(=O)N(C)CCCc1ccccc1.Cl` (mixture of isomers) [Example 16, 2,6-dimethyl-DL-tyrosyl-N-methyl-N-(3-phenylpropyl)-D-alaninamide, monohydrochloride], the “Writhing Mouse Oral” value [1] was “Inactive”, the “Writhing Mouse Subc.” value [1] was “Active” and the IC50 [2, 4] was 300 nM.
With `COc1cc(C)c(CC(N)C(=O)N[C@H](C)C(=O)NCCCc2ccccc2)c(C)c1.Cl` (mixture of isomers) [Example 2, 0,2,6-trimethyl-DL-tyrosyl-N-(3-phenylpropyl)-D-alaninamide, monohydrochloride] the “Writhing Mouse Oral” value [1] was “Active”, the “Writhing Mouse Subc.” value [1] was “Active” and the IC50 [2, 4] was 290 nM.
For `CNC(Cc1c(C)cc(OCc2ccccc2)cc1C)C(=O)N[C@H](C)C(=O)NCCCc1ccccc1.Cl` (mixture of isomers) [Example 12, N,2,6-trimethyl-0-(phenylmethyl)-DL-tyrosyl-N-(3-phenylpropyl)-D-alaninamide, monohydrochloride], the “Writhing Mouse Oral” value [1] was “Active”, the “Writhing Mouse Subc.” value [1] was “Active” and the IC50 [2, 4] was 3600 nM.
In the case of `COc1cc(C)c(C[C@H](N)C(=O)N[C@H](C)C(=O)NCCCc2ccccc2)c(C)c1` [Example 3, 0,2,6-trimethyltyrosyl-N-(3-phenylpropyl)-D-alaninamide], the “Writhing Mouse Oral” value [1] is reported as “Active”, the “Writhing Mouse Subc.” value [1] is reported as “Active” and the IC50 [2, 4] is reported as 420 nM.
In the case of `COc1cc(C)c(C[C@H](N)C(=O)N[C@H](C)C(=O)NCCCc2ccccc2)c(C)c1` [Example 4, 0,2,6-trimethyltyrosyl-N-(3-phenylpropyl)-D-alaninamide], the “Writhing Mouse Oral” value [1] is reported as “Active”, the “Writhing Mouse Subc.” value [1] is reported as “Active” and the IC50 [2, 4] is reported as 75 nM.
In the case of `Cc1cc(OC(C)C)cc(C)c1C[C@H](N)C(=O)N[C@H](C)C(=O)NCCCc1ccccc1.Cc1cc(OC(C)C)cc(C)c1C[C@H](N)C(=O)N[C@H](C)C(=O)NCCCc1ccccc1.Cc1cc(OC(C)C)cc(C)c1C[C@H](N)C(=O)N[C@H](C)C(=O)NCCCc1ccccc1.Cc1cc(OC(C)C)cc(C)c1C[C@H](N)C(=O)N[C@H](C)C(=O)NCCCc1ccccc1.Cl.Cl.Cl.Cl.Cl` [Example 6, 2,6,dimethyl-0-(1-methylethyl)tyrosyl-N-(3-phenylpropyl)-D-alaninamide, hydrochloride (4:5)], the “Writhing Mouse Oral” value [1] is reported as “Inactive”, the “Writhing Mouse Subc.” value [1] is reported as “Inactive” and the IC50 ([2]; read-out: Opiate Binding IC50) is reported as 47 nM.
For `COc1ccc(C[C@H](N)C(=O)N[C@H](C)C(=O)NCCCc2ccccc2)cc1.Cl` [Example 9, 0-methyl-L-tyrosyl-N-(3-phenylpropyl)-D-alaninamide, monohydrochloride], the “Writhing Mouse Oral” value [1] was “Active”, the “Writhing Mouse Subc.” value [1] was “Active” and the “Opiate Binding IC50” value [2] was “Inactive”.
For `CN[C@@H](Cc1c(C)cc(OC)cc1C)C(=O)N[C@H](C)C(=O)NCCCc1ccccc1.Cl` [Example 11, N,0,2,6,-tetramethyltyrosyl-N-(3-phenylpropyl)-D-alaninamide, monohydrochloride], the “Writhing Mouse Oral” value [1] was “Active”, the “Writhing Mouse Subc.” value [1] was “Active” and the IC50 [2, 4] was 610 nM.
In the case of `CN[C@@H](Cc1c(C)cc(O)cc1C)C(=O)N[C@H](C)C(=O)NCCCc1ccccc1.Cl` [Example 13, N,2,6-trimethyltyrosyl-N-(3-phenylpropyl)-D-alaninamide, monohydrochloride], the “Writhing Mouse Oral” value [1] is reported as “Inactive”, the “Writhing Mouse Subc.” value [1] is reported as “Active” and the IC50 ([2]; inhibition of 1 nM 3H-Naloxone specific binding, rat brain membranes, screening concentration 10^-5 M, monohydrochloride) is reported as 1800 nM.
In the case of `CN[C@@H](Cc1c(C)cc(O)cc1C)C(=O)N[C@H](C)C(=O)NCCCc1ccccc1.CN[C@@H](Cc1c(C)cc(O)cc1C)C(=O)N[C@H](C)C(=O)NCCCc1ccccc1.CN[C@@H](Cc1c(C)cc(O)cc1C)C(=O)N[C@H](C)C(=O)NCCCc1ccccc1.CN[C@@H](Cc1c(C)cc(O)cc1C)C(=O)N[C@H](C)C(=O)NCCCc1ccccc1.Cl.Cl.Cl.Cl.Cl` [Example 14, N,2,6-trimethyltyrosyl-N-(3-phenylpropyl)-D-alaninamide, hydrochloride (4:5)], the “Writhing Mouse Oral” value [1] is reported as “Inactive”, the “Writhing Mouse Subc.” value [1] is reported as “Active” and the IC50 [2, 4] is reported as 140 nM.
For `Cc1cc(C)c(C[C@H](N)C(=O)N[C@H](C)C(=O)NCCCc2ccccc2)c(C)c1.Cl` [Example 25, 2,4,6-trimethylphenylalanyl-N-(3-phenylpropyl)-D-alaninamide, monohydrochloride], the “Writhing Mouse Oral” value [1] was “Inactive”, the “Writhing Mouse Subc.” value [1] was “Active” and the IC50 [2, 4] was 2000 nM.
In the case of `Cc1cc(OCc2ccccc2)cc(C)c1C[C@H](N)C(=O)N[C@H](C)C(=O)NCCCc1ccccc1.Cl` [Example 27, 2,6-dimethyl-O-(phenylmethyl)-L-tyrosyl-N-(3-phenylpropyl)-D-alaninamide, monohydrochloride], the “Writhing Mouse Oral” value [1] is reported as “Active”, the “Writhing Mouse Subc.” value [1] is reported as “Active” and the IC50 [2, 4] is reported as 360 nM.
In the case of `Cc1cc(OCc2ccccc2)cc(C)c1C[C@@H](N)C(=O)N[C@H](C)C(=O)NCCCc1ccccc1.Cl` [Example 28, 2,6-dimethyl-O-(phenylmethyl)-D-tyrosyl-N-(3-phenylpropyl)-D-alaninamide, hydrochloride], the “Writhing Mouse Oral” value [1] is reported as “Active”, the “Writhing Mouse Subc.” value [1] is reported as “Active” and the IC50 [2, 4] is reported as 22 nM.
For methionine enkephalin, the analgesic activity [3] is given as “weak, fleeting analgesic activity”.
